Counter-ions that a name gives are not always drawn. Like-named read-outs stand apart in the source and are kept apart here.
How the values were obtained:
[1] = system: S. pneumoniae; assay: Resistance frequency determination and cross resistance of spontaneous mutants; format: cell-based, Streptococcus pneumoniae; conditions: cross resistance testing of 2 mutants
[2] = system: Neisseria gonorrhoeae (ATCC 49226); assay: Disc diffusion assay; format: cell-based; conditions: ATCC49226, 4 μg per disc, read-out: Zone of inhibition N.g.
[3] = system: Listeria monocytogenes; assay: MIC determination (Table 6); format: cell-based
[4] = system: Streptococcus pyogenes (ATCC 700294); assay: MIC determination, microbroth dilution; format: cell-based; conditions: ATCC700294; Streptococcus pyogenes (ATCC 700294); read-out: MIC S. py.
[5] = system: Streptococcus pneumoniae clinical isolates representing several serotypes; assay: MIC determination, Streptococcus pneumoniae panel of clinical isolates (Table 7); format: cell-based; conditions: Streptococcus pneumoniae
[6] = system: Bacillus subtilis (ATCC 23857); assay: MIC determination, microbroth dilution; format: cell-based; conditions: ATCC23857; Bacillus subtilis (ATCC 23857); read-out: MIC B.s.
[7] = system: Proteus mirabilis (ATCC 25933); assay: MIC determination, microbroth dilution; format: cell-based; conditions: ATCC25933
[8] = system: Moraxella catarrhalis; assay: MIC determination (Table 6); format: cell-based
[9] = system: Yersinia pestis; assay: microbe, parasite or virus in culture; format: cell-based; conditions: read-out: MIC Y.p.
[10] = system: Escherichia coli (ATCC 700926); assay: MIC determination, microbroth dilution; format: cell-based; conditions: ATCC700926; Escherichia coli (ATCC 700926); read-out: MIC E.c.
[11] = system: Legionella pneumophila (ATCC 33153); assay: microbe, parasite or virus in culture; format: cell-based; conditions: ATCC33153, 72 h, read-out: Zone of inhibition L.p.
[12] = system: Klebsiella pneumoniae (ATCC 33495); assay: MIC determination, microbroth dilution; format: cell-based; conditions: ATCC33495
[13] = system: MRSA, Staphylococcus aureus (NRS70); assay: MIC determination, microbroth dilution; format: cell-based; conditions: read-out: MIC MRSA
[14] = system: acinetobacter baumannii (ATCC 19606); assay: MIC determination, microbroth dilution; format: cell-based; conditions: ATCC19606
[15] = system: Bacillus anthracis; assay: microbe, parasite or virus in culture; format: cell-based; conditions: read-out: MIC B.a.
[16] = system: Stenotrophomonas maltophilia (ATCC 13637); assay: MIC determination, microbroth dilution; format: cell-based; conditions: ATCC13637; Stenotrophomonas maltophilia (ATCC 13637); read-out: MIC S.m.
[17] = system: live vaccine strain (LVS) of Francisella tularensis; assay: microbe, parasite or virus in culture; format: cell-based; conditions: Francisella tularensis, read-out: MIC F.t.
[18] = system: Burkholderia cepacia (ATCC 25416); assay: MIC determination, microbroth dilution; format: cell-based; conditions: Burkholderia cepacia
[19] = system: Proteus vulgaris (ATCC 33420); assay: MIC determination, microbroth dilution; format: cell-based; conditions: ATCC33420
[20] = system: Streptococcus pneumoniae (R6); assay: MIC determination, microbroth dilution; format: cell-based
[21] = system: Bacillus anthracis, Sterne 34F2; assay: microbe, parasite or virus in culture; format: cell-based; conditions: STERNE34F2, read-out: MIC B.a.
[22] = system: Neisseria gonorrhoeae (ATCC 49226); assay: Agar MIC determination (Alamar Blue); format: cell-based; conditions: ATCC49226, agar MIC, read-out: MIC N.g.
[23] = system: Neisseria meningitides (ATCC 13077); assay: Disc diffusion assay; format: cell-based; conditions: ATCC13077, 4 μg per disc, read-out: Zone of inhibition N.m.
[24] = system: Pseudomonas aeruginosa (PA01); assay: MIC determination, microbroth dilution; format: cell-based
[25] = system: Haemophilus influenza (ATCC 49247); assay: microbe, parasite or virus in culture; format: cell-based; conditions: ATCC49247; Haemophilus influenza; 4 μg per disc; range of at least two experiments; read-out: Zone of inhibition H.i.
[26] = system: E. coli K12 ΔtolC; assay: microbe, parasite or virus in culture; format: cell-based; conditions: Escherichia coli, read-out: MIC E.c. Δtolc
[27] = system: M. tuberculosis clinical isolates; assay: microbe, parasite or virus in culture; format: cell-based; conditions: Mycobacterium tuberculosis, H37RV, read-out: MIC H37Rv
[28] = system: Staphylococcus aureus (ATCC 29213); assay: MIC determination, microbroth dilution; format: cell-based; conditions: ATCC29213; Staphylococcus aureus (ATCC 29213); read-out: MIC S.a.
[29] = system: Enterococcus faecalis (ATCC 33186); assay: MIC determination, microbroth dilution; format: cell-based
[30] = BAA1407, S. pneumoniae BAA-1407, Macrolide Resistant, read-out: MIC BAA-1407
[31] = S. pneumoniae A66.1x, Drug Susceptible, read-out: MIC A66.1x
[32] = S. pneumoniae BHN97x, Drug Susceptible, read-out: MIC BHN97x
[33] = S. pneumoniae D39X, Drug Susceptible, read-out: MIC D39X
[34] = S. pneumoniae Daw7, PenG Resistant, read-out: MIC Daw7
[35] = S. pneumoniae Daw8, PenG Resistant, read-out: MIC Daw8
[36] = S. pneumoniae Daw9, PenG Resistant, read-out: MIC Daw9
[37] = S. pneumoniae Daw62, PenG Resistant, read-out: MIC Daw62
[38] = S. pneumoniae Daw64, PenG Resistant, read-out: MIC Daw64
[39] = S. pneumoniae OVA6, Macrolide Resistant, read-out: MIC OVA6
[40] = S. pneumoniae T4X, Drug Susceptible, read-out: MIC T4X
[41] = ATCC25416, read-out: MIC B.c., Burkholderia cepacia (ATCC 25416)
[42] = ATCC25416, read-out: MIC B.c., Burkholderia cepacia, Table 6
[43] = Streptococcus pneumoniae (R6), read-out: MIC S. pn.
[44] = Streptococcus pneumoniae, S. pneumoniae R6, Drug Susceptible, read-out: MIC R6

With `CC1(C)S[C@@H]2[C@H](NC(=O)[C@H](N)c3ccccc3)C(=O)N2[C@H]1C(=O)O` [ampicillin] the “susceptibility of mutants resistant to 2” value [1] was “susceptible”.

For `NCC[C@H](O)C(=O)N[C@@H]1C[C@H](N)[C@@H](O[C@H]2O[C@H](CN)[C@@H](O)[C@H](O)[C@H]2O)[C@H](O)[C@H]1O[C@H]1O[C@H](CO)[C@@H](O)[C@H](N)[C@H]1O` [amikacin], the “susceptibility of mutants resistant to 2” value [1] was “susceptible”.

`CCc1ccc(CNC[C@]2(O)C[C@@H](C)O[C@H]3O[C@@H]4[C@@H](O)[C@H](NC)[C@H](O)[C@H](NC)[C@H]4O[C@]32O)cc1` [compound 3, 3′-(R)-3′-[(4-ethyl)benzylaminomethyl)]dihydrospectinomycin Trihydrochloride] showed a zone of inhibition at 4 µg/disc [2] of 16 mm, an MIC [3] of 6.3 µg/mL and an MIC [4] of 1.6 to 3.1 µg/mL. For the same compound, the MIC [5, 30] was 6.3 µg/mL, the MIC [5, 31] was 1.6 µg/mL and the MIC [5, 32] was 3.1 µg/mL. The MIC [5, 33] was 1.6 µg/mL, the MIC [5, 34] was 6.3 µg/mL and the MIC [5, 35] was 3.1 µg/mL. The MIC [5, 36] was 3.1 µg/mL, the MIC [5, 37] was 6.3 µg/mL and the MIC [5, 38] was 6.3 µg/mL. The MIC [5, 39] was 6.3 µg/mL, the MIC [5, 40] was 3.1 µg/mL and the MIC [6] was 3.1 to 6.3 µg/mL. It also gave an MIC [7] of 100 to 200 µg/mL, an MIC [8] of 3.1 to 6.3 µg/mL and an MIC [9] of over 200 µg/mL. For the same compound, the MIC [10] was 12.5 to 25 µg/mL, the zone of inhibition at 4 µg/disc [11] was 28 to 40 mm and the MIC [12] was 100 to 200 µg/mL. The MIC ([13]; Staphylococcus aureus) was 12.5 to 25 µg/mL, the MIC [14] was 200 µg/mL and the MIC [15] was 12.5 to 25 µg/mL. For the same compound, the MIC [16] was 12.5 µg/mL, the MIC [17] was 1.6 to 3.1 µg/mL and the MIC [18, 41] was over 200 µg/mL. For the same compound, the MIC [18, 42] was over 200 µg/mL, the MIC [19] was 25 to 50 µg/mL and the MIC [20, 43] was 1.6 to 3.1 µg/mL. For the same compound, the MIC [20, 44] was 3.1 µg/mL, the MIC [21] was 12.5 to 25 µg/mL and the MIC [22] was 12.5 µg/mL. It also gave a zone of inhibition at 4 µg/disc [23] of 18 mm, an MIC [24] of 100 to 200 µg/mL and a zone of inhibition at 4 µg/disc [25] of 15 to 17 mm. For the same compound, the MIC [26] was 6.3 µg/mL, the MIC [27] was 25 µg/mL and the MIC [28] was 50 µg/mL. It also gave an MIC ([29]; Enterococcus faecalis, ATCC33186, read-out: MIC E.f.) of 12.5 to 25 µg/mL.

`CN[C@@H]1[C@H](O)[C@H](NC)[C@H]2O[C@]3(O)[C@H](O[C@@H]2[C@H]1O)O[C@H](C)C[C@@]3(O)CNCc1ccccc1` [compound 1, 3′-(R)-3′-(benzylaminomethyl)dihydrospectinomycin Trihydrochloride] showed a zone of inhibition at 4 µg/disc [2] of 16 mm, an MIC [3] of 25 µg/mL and an MIC [4] of 3.1 to 6.3 µg/mL. It also gave an MIC [5, 30] of 12.5 µg/mL, an MIC [5, 31] of 3.1 µg/mL and an MIC [5, 32] of 3.1 µg/mL. The MIC [5, 33] was 3.1 µg/mL, the MIC [5, 34] was 6.3 µg/mL and the MIC [5, 35] was 6.3 µg/mL. The MIC [5, 36] was 6.3 µg/mL, the MIC [5, 37] was 6.3 µg/mL and the MIC [5, 38] was 6.3 µg/mL. It also gave an MIC [5, 39] of 6.3 µg/mL, an MIC [5, 40] of 6.3 µg/mL and an MIC [6] of 3.1 µg/mL. It also gave an MIC [7] of over 200 µg/mL, an MIC [8] of 6.3 µg/mL and an MIC [9] of 100 to 200 µg/mL. The MIC [10] was 100 µg/mL, the zone of inhibition at 4 µg/disc [11] was 36 to 40 mm and the MIC [12] was over 200 µg/mL. It also gave an MIC ([13]; Staphylococcus aureus (NRS70)) of 50 to 100 µg/mL, an MIC [14] of over 200 µg/mL and an MIC [15] of 50 µg/mL. It also gave an MIC [16] of 25 µg/mL, an MIC [17] of 3.1 µg/mL and an MIC [18, 41] of at least 200 µg/mL. The MIC [18, 42] was at least 200 µg/mL, the MIC [19] was 200 µg/mL and the MIC [20, 43] was 6.3 to 12.5 µg/mL. It also gave an MIC [20, 44] of 6.3 µg/mL, an MIC [21] of 50 µg/mL and an MIC [22] of 100 µg/mL. The zone of inhibition at 4 µg/disc [23] was 16 to 22 mm, the MIC [24] was over 200 µg/mL and the zone of inhibition at 4 µg/disc [25] was 16 mm. The MIC [26] was 25 µg/mL, the MIC [27] was 25 µg/mL and the MIC [28] was 50 µg/mL. It also gave an MIC ([29]; ATCC33186, Enterococcus faecalis (ATCC 33186), read-out: MIC E.f.) of 25 µg/mL.
